Experimental data published in article PMC10108347, “Heterobifunctional Ligase Recruiters Enable pan-Degradation of Inhibitor of Apoptosis Proteins” (Journal of Medicinal Chemistry, 2023).
Entries after “also recorded” stand apart in the source; their conditions may differ. Like-named read-outs stand apart in the source and are kept apart here.

Assays:
[1] = target: T1, plasma protein (HSA column) (Homo sapiens, UniProt P02768); test: Plasma protein binding estimated by HPLC on a […] HSA column; assay type: in vitro ADME; conditions: CHIRALPAK HSA column (50 × 3 mm, 5 μm), estimated by an HPLC-based method, read-out: PPB (plasma protein binding) (converted)
T1 construct: purchased
T1 sequence (P02768 25-609): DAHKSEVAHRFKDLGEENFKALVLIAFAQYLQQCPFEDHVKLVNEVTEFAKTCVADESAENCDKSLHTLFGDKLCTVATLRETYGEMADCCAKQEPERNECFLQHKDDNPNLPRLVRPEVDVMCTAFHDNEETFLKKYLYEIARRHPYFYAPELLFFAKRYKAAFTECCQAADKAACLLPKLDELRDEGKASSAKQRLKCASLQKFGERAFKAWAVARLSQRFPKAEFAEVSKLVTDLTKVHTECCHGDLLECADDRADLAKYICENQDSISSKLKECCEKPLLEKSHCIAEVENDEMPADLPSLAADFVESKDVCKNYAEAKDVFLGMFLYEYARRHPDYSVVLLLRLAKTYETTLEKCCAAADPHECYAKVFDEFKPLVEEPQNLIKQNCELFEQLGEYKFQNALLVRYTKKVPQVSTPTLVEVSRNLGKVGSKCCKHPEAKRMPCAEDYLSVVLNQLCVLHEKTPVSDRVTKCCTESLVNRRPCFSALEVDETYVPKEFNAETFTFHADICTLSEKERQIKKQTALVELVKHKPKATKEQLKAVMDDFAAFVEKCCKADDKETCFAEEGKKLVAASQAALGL
Procedure: Plasma protein binding (% PPB) was estimated by correlating the logarithmic retention times of the analytes on a […] HSA 50 × 3 mm, 5 μm column with the literature-known % PPB values (converted into log K values) of the following drugs: warfarin, ketoprofen, budesonide, nizatidine, indomethacin, acetylsalicylic acid, carbamazepine, piroxicam, nicardipine, and cimetidine (for details, see Valko et al.).[67] The samples were dissolved in MeCN/DMSO 9:1 to achieve a final concentration of 0.5 mg/mL. Mobile phase A was 50 mM ammonium acetate adjusted to pH 7.4 with ammonia solution, while mobile phase B was iPrOH. The flow rate was set to 1.0 mL/min, the UV detector was set to 254 nm, and the column temperature was kept at 30 °C. After injecting 2 μL of the sample, a linear gradient from 100% A to 30% iPrOH in 5.4 min was applied. From 5.4 to 18 min, 30% iPrOH was kept, followed by switching back to 100% A in 1.0 min and a re-equilibration time of 6 min. With the aid of the calibration line (R^2 = 0.96), the log K values of new substances were calculated and converted to their % PPB values.

[2] = Log D7.4 measurement by chromatographic (fast-gradient HPLC) method; conditions: pH 7.4
Procedure: The system was calibrated by plotting the retention times of six different drugs (atenolol, metoprolol, labetalol, diltiazem, triphenylene, and permethrin) versus their literature-known log D7.4 in a calibration line (R^2 = 0.99). Subsequently, the mean retention times of the analytes were taken to calculate their log D7.4 values with the aid of the calibration line. At least two independent measurements of each analyte were performed.

[3] = target: XIAP (Homo sapiens, UniProt P98170); test: Immunoblotting (western blot) quantification of XIAP levels in MM.1S cells; conditions: 16 h; for remaining activity at 0.1 µM: MM1.S
XIAP, sequence (P98170 whole entry): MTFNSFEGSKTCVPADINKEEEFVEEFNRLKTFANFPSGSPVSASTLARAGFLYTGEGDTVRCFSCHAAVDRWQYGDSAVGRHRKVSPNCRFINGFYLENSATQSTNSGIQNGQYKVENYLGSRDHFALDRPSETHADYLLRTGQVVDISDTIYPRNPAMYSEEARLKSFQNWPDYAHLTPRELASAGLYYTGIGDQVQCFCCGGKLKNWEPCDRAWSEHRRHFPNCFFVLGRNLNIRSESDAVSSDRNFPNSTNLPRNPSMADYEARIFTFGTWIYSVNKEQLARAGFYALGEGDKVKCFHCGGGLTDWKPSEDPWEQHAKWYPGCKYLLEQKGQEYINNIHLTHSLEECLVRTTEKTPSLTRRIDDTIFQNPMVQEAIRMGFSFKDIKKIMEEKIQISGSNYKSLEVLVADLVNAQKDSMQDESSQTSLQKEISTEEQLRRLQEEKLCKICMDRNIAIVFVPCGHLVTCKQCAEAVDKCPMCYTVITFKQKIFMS

[4] = target: cIAP1 (Homo sapiens, UniProt Q13490); test: Immunoblotting (western blot) quantification of cIAP1 levels in MM.1S cells; conditions: MM1.S, 16 h
cIAP1, sequence (Q13490 whole entry): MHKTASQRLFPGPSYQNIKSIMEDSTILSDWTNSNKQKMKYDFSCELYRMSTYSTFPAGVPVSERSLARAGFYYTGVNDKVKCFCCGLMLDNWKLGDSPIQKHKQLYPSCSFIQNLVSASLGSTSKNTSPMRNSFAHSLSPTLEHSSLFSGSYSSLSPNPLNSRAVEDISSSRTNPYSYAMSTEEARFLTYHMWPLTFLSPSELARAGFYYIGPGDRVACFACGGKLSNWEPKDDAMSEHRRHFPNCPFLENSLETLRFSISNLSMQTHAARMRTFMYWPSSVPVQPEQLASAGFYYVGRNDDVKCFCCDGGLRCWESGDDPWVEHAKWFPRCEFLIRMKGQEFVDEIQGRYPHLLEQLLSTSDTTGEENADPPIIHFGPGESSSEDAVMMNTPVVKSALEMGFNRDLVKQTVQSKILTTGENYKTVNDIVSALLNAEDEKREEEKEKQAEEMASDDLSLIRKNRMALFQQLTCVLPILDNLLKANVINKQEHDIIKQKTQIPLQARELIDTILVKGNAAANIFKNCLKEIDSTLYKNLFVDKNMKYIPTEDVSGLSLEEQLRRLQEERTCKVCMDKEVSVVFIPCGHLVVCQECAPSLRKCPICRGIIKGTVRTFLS
Procedure: (§1) To evaluate the capability of our panel of hetero-PROTACs for E3 ligase degradation, VHL19, VHL30, CRBN, cIAP1, cIAP2, and XIAP levels were quantified by western blot analyses. […] SDS-PAGE was performed, and proteins were then transferred onto PVDF membranes. Blotted membranes were blocked with 5% milk in Tris-buffered saline/Tween20 (TBST). Primary antibodies were diluted in 5% BSA in TBST, and incubations were performed overnight at 4 °C. Secondary HRP-conjugated antibodies diluted in 5% milk were incubated for 1 h at room temperature. Detection of proteins on PVDF was carried out using the WesternBright ECL HRP substrate or the WesternBright Sirius HRP substrate (Advansta, San Jose, USA) and imaged with LAS 4000× (Fujifilm). Membranes were subjected to 10 min incubation with Restore Western Blot Stripping Buffer (Thermo Fisher Scientific, Waltham, USA), followed by TBST washes. After brief re-activation with methanol, the membranes were blocked, and further probing of proteins was carried out.
(§2) Quantification of blots was performed using ImageJ software (National Institutes of Health).

[5] = target: cIAP2 (Homo sapiens, UniProt Q13489); test: Immunoblotting (western blot) quantification of cIAP2 levels in MM.1S cells; conditions: MM1.S, 16 h
cIAP2, sequence (Q13489 whole entry): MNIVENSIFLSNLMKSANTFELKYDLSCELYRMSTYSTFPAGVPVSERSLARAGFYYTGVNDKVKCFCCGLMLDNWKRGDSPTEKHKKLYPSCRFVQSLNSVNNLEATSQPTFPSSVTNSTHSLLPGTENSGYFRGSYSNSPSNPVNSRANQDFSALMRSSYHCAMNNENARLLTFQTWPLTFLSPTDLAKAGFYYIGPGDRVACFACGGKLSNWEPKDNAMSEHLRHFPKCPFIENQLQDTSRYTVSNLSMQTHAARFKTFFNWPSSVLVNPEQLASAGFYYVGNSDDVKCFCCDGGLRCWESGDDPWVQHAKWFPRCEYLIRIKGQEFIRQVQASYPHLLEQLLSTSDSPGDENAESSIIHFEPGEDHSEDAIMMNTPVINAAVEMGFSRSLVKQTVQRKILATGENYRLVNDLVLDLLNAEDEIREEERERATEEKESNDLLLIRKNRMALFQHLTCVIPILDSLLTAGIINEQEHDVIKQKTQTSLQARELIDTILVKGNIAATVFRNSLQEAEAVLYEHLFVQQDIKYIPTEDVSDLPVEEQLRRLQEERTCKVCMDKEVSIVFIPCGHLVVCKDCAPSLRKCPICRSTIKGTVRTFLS
Procedure: as §1, §2

[6] = target: VHL30 (Homo sapiens, UniProt P40337); test: Immunoblotting (western blot) quantification of VHL30 levels in MM.1S cells; conditions: MM1.S, 16 h
VHL30, sequence (P40337 whole entry): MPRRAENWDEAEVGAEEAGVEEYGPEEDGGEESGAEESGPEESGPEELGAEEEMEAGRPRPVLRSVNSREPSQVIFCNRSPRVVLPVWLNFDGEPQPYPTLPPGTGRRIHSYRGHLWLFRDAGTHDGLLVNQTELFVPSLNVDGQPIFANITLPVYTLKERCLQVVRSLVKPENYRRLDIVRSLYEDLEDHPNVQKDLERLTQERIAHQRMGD

[7] = tested on: IAPs (cIAP1, cIAP2, XIAP); test: Immunoblotting of IAPs in MM.1S cells, overall degradation profile, time course and washout; assay type: cell-based; conditions: 16 h, western blot, concentration (10 nM to 1 μM)
Procedure: Next, we examined the persistence of IAP degradation in MM.1S cells after a single exposure to 1 μM of 9 and subsequent removal of the compound. […] The reliance on CRL2^VHL was assessed with a neddylation inhibitor MLN4924, which blocks the activity of CRLs (Figure S13A).

[8] = read-out: %remaining protein XIAP
[9] = read-out: %remaining protein cIAP1
[10] = read-out: %remaining protein cIAP2
[11] = read-out: %remaining protein VHL30
[12] = read-out: %remaining protein XIAP, MM.1S cells, 16 h treatment at 0.1 μM, normalized to loading control and DMSO
[13] = read-out: %remaining protein cIAP1, MM.1S cells, 16 h treatment at 0.1 μM, normalized to loading control and DMSO
[14] = read-out: %remaining protein cIAP2, MM.1S cells, 16 h treatment at 0.1 μM, normalized to loading control and DMSO
[15] = read-out: %remaining protein VHL30, MM.1S cells, 16 h treatment at 0.1 μM, normalized to loading control and DMSO

Row | SMILES | remaining activity at 0.1 µM [3, 12] | remaining activity at 0.1 µM [4, 13] | remaining activity at 0.1 µM [5, 14] | remaining activity at 0.1 µM [6, 15] | XIAP degradation (in words) ([3]; MM.1S cells, western blot, 0.1 or 1 μM) | fraction unbound at 0.5 mg/mL [1] | chromatographic logD [2] | remaining activity at 0.1 µM [3, 8] | remaining activity at 0.1 µM [4, 9] | remaining activity at 0.1 µM [5, 10] | remaining activity at 0.1 µM [6, 11] | IAP degradation profile (in words) [7]
1 | CN[C@@H](C)C(=O)N[C@H](C(=O)N1C[C@@H](Oc2cccc(OCCCCCOc3cc(-c4scnc4C)ccc3CNC(=O)[C@@H]3C[C@@H](O)CN3C(=O)[C@H](C(C)C)N3Cc4ccccc4C3=O)c2)C[C@H]1C(=O)N[C@@H]1CCCc2ccccc21)C1CCCCC1 [PROTAC 12, (2S,4S)-1-((S)-2-Cyclohexyl-2-((S)-2-(methylamino)propanamido)acetyl)-4-(3-((5-(2-(((2S,4R)-4-hydroxy-1-((S)-3-methyl-2-(1-oxoisoindolin-2-yl)butanoyl)pyrrolidine-2-carboxamido)methyl)-5-(4-methylthiazol-5-yl)phenoxy)pentyl)oxy)phenoxy)-N-((R)-1,2,3,4-tetrahydronaphthalen-1-yl)pyrrolidine-2-carboxamide] |  |  |  |  |  | 0.04 | 4 | 5% | 4% | 29% | 55% | 
2 | CN[C@@H](C)C(=O)N[C@H](C(=O)N1C[C@@H](Oc2cccc(OCCCCCCCCOc3cc(-c4scnc4C)ccc3CNC(=O)[C@@H]3C[C@@H](O)CN3C(=O)[C@H](C(C)C)N3Cc4ccccc4C3=O)c2)C[C@H]1C(=O)N[C@@H]1CCCc2ccccc21)C1CCCCC1 [PROTAC 13, (2S,4S)-1-((S)-2-Cyclohexyl-2-((S)-2-(methylamino)propanamido)acetyl)-4-(3-((8-(2-(((2S,4R)-4-hydroxy-1-((S)-3-methyl-2-(1-oxoisoindolin-2-yl)butanoyl)pyrrolidine-2-carboxamido)methyl)-5-(4-methylthiazol-5-yl)phenoxy)octyl)oxy)phenoxy)-N-((R)-1,2,3,4-tetrahydronaphthalen-1-yl)pyrrolidine-2-carboxamide] |  |  |  |  |  | 0.03 | 4.8 | 5% | 3% | 15% | 53% | 
3 | CN[C@@H](C)C(=O)N[C@H](C(=O)N1C[C@@H](Oc2cccc(OCCCCCCOCCCCCCOCCCCCCOc3cc(-c4scnc4C)ccc3CNC(=O)[C@@H]3C[C@@H](O)CN3C(=O)[C@H](C(C)C)N3Cc4ccccc4C3=O)c2)C[C@H]1C(=O)N[C@@H]1CCCc2ccccc21)C1CCCCC1 [PROTAC 19, (2S,4S)-1-((S)-2-Cyclohexyl-2-((S)-2-(methylamino)propanamido)acetyl)-4-(3-((6-((6-((6-(2-(((2S,4R)-4-hydroxy-1-((S)-3-methyl-2-(1-oxoisoindolin-2-yl)butanoyl)pyrrolidine-2-carboxamido)methyl)-5-(4-methylthiazol-5-yl)phenoxy)hexyl)oxy)hexyl)oxy)hexyl)oxy)phenoxy)-N-((R)-1,2,3,4-tetrahydronaphthalen-1-yl)pyrrolidine-2-carboxamide] |  |  |  |  |  |  | 6.3 | 34% | 27% | 84% | 95% | dual cIAP1/XIAP degradation at 0.1 μM concentration; also recorded: pan-IAP degradation at 1 μM; also recorded: no degradation at 10 nM
4 | CN[C@@H](C)C(=O)N[C@H](C(=O)N1C[C@@H](Oc2cccc(OCCOCCOCCOCCOc3cc(-c4scnc4C)ccc3CNC(=O)[C@@H]3C[C@@H](O)CN3C(=O)[C@H](C(C)C)N3Cc4ccccc4C3=O)c2)C[C@H]1C(=O)N[C@@H]1CCCc2ccccc21)C1CCCCC1 [PROTAC 16, (2S,4S)-1-((S)-2-Cyclohexyl-2-((S)-2-(methylamino)propanamido)acetyl)-4-(3-(2-(2-(2-(2-(2-(((2S,4R)-4-hydroxy-1-((S)-3-methyl-2-(1-oxoisoindolin-2-yl)butanoyl)pyrrolidine-2-carboxamido)methyl)-5-(4-methylthiazol-5-yl)phenoxy)ethoxy)ethoxy)ethoxy)ethoxy)phenoxy)-N-((R)-1,2,3,4-tetrahydronaphthalen-1-yl)pyrrolidine-2-carboxamide] |  |  |  |  |  | 0.05 | 3.3 | 2% | 3% | 31% | 41% | 
5 | CN[C@@H](C)C(=O)N[C@H](C(=O)N1CCC[C@H]1c1nc(C(=O)c2ccc(F)cc2)cs1)C1CCCCC1 [LCL161, reference compound] |  |  |  |  | failed to degrade XIAP | 0.12 | 3.3 |  |  |  |  | 

More lines, main results first:

Row | remaining activity at 0.1 µM [3, 12] | remaining activity at 0.1 µM [4, 13] | remaining activity at 0.1 µM [5, 14] | remaining activity at 0.1 µM [6, 15] | XIAP degradation (in words) ([3]; MM.1S cells, western blot, 0.1 or 1 μM) | SMILES | fraction unbound at 0.5 mg/mL [1] | chromatographic logD [2] | remaining activity at 0.1 µM [3, 8] | remaining activity at 0.1 µM [4, 9] | remaining activity at 0.1 µM [5, 10] | remaining activity at 0.1 µM [6, 11] | IAP degradation profile (in words) [7]
6 | 87% | 73% | 88% | > 99% |  | Cc1ncsc1-c1ccc([C@H](C)NC(=O)[C@@H]2C[C@@H](O)CN2C(=O)[C@@H](NC(=O)CCCCOc2cccc(O[C@H]3C[C@@H](C(=O)N[C@@H]4CCCc5ccccc54)N(C(=O)[C@@H](NC(=O)[C@H](C)N(C)C(=O)OC(C)(C)C)C4CCCCC4)C3)c2)C(C)(C)C)cc1 [PROTAC 10d, tert-Butyl ((S)-1-(((S)-1-Cyclohexyl-2-((2S,4S)-4-(3-((5-(((S)-1-((2S,4R)-4-hydroxy-2-(((S)-1-(4-(4-methylthiazol-5-yl)phenyl)ethyl)carbamoyl)pyrrolidin-1-yl)-3,3-dimethyl-1-oxobutan-2-yl)amino)-5-oxopentyl)oxy)phenoxy)-2-(((R)-1,2,3,4-tetrahydronaphthalen-1-yl)carbamoyl)pyrrolidin-1-yl)-2-oxoethyl)amino)-1-oxopropan-2-yl)(methyl)carbamate] |  |  |  |  |  |  | inactivated PROTACs
7 | 66% | 2% | 27% | 63% |  | Cc1ncsc1-c1ccc([C@H](C)NC(=O)[C@@H]2C[C@@H](O)CN2C(=O)[C@@H](NC(=O)CCCCOc2cccc(O[C@H]3C[C@@H](C(=O)N[C@@H]4CCCc5ccccc54)N(C(=O)[C@@H](NC(=O)[C@H](C)N(C)C)C4CCCCC4)C3)c2)C(C)(C)C)cc1 [PROTAC 10b, (2S,4S)-1-((S)-2-Cyclohexyl-2-((S)-2-(dimethylamino)propanamido)acetyl)-4-(3-((5-(((S)-1-((2S,4R)-4-hydroxy-2-(((S)-1-(4-(4-methylthiazol-5-yl)phenyl)ethyl)carbamoyl)pyrrolidin-1-yl)-3,3-dimethyl-1-oxobutan-2-yl)amino)-5-oxopentyl)oxy)phenoxy)-N-((R)-1,2,3,4-tetrahydronaphthalen-1-yl)pyrrolidine-2-carboxamide] |  |  |  |  |  |  | cIAP1 and cIAP2 degradation
8 | 88% | 94% | > 99% | > 99% |  | CC(=O)N(C)[C@@H](C)C(=O)N[C@H](C(=O)N1C[C@@H](Oc2cccc(OCCCCC(=O)N[C@H](C(=O)N3C[C@H](O)C[C@H]3C(=O)N[C@@H](C)c3ccc(-c4scnc4C)cc3)C(C)(C)C)c2)C[C@H]1C(=O)N[C@@H]1CCCc2ccccc21)C1CCCCC1 [PROTAC 10c, (2S,4S)-1-((S)-2-Cyclohexyl-2-((S)-2-(N-methylacetamido)propanamido)acetyl)-4-(3-((5-(((S)-1-((2S,4R)-4-hydroxy-2-(((S)-1-(4-(4-methylthiazol-5-yl)phenyl)ethyl)carbamoyl)pyrrolidin-1-yl)-3,3-dimethyl-1-oxobutan-2-yl)amino)-5-oxopentyl)oxy)phenoxy)-N-((R)-1,2,3,4-tetrahydronaphthalen-1-yl)pyrrolidine-2-carboxamide] |  |  |  |  |  |  | inactivated PROTACs
